Among the data in patent US20230025836A1, “EYE DROP COMPOSITION FOR PREVENTING OR TREATING EYE DISEASE” (Samjin Pharmaceutical Co., Ltd., priority 2019, published 2023) are solubility values, retold here.

What is called solubility is the concentration that dissolves in the medium under given conditions. A lower solubility goes with little dissolved substance.

Converted amounts (≈) assume the structure as drawn.

This data set in a line: Solubility of the active material in water. The class given is physicochemical. An excerpt:
In one embodiment, the eye drop may comprise the above-described solubilizing agent, so that an active ingredient thereof may be well dissolved and may not be precipitated even after long-term storage, thus resulting in better physical stability and chemical stability. In one embodiment, a concentration of the solubilizing agent in the eye drop may be 0.1 w/v % to 25.0 w/v %. In one embodiment, the type of the solubilizing agent may not be particularly limited, but may include, for example, at least one selected from the group consisting of surfactants, solvents, and mixtures thereof as follows. […] Thus, in one embodiment, the eye drop may comprise the solubilizing agent to dissolve 3-phenyl-4-propyl-1-(pyridin-2-yl)-1H-pyrazol-5-ol by 0.1% (1,000 μg/mL) to 2.0% (20,000 μg/mL).

`CCCc1c(-c2ccccc2)nn(-c2ccccn2)c1O` [3-phenyl-4-propyl-1-(pyridin-2-yl)-1H-pyrazol-5-ol] showed a solubility of about 3.4 µg/mL (≈ 12.2 µM).
